Data taken from US20200384188A1, “SYSTEMS, DEVICES, FORMULATIONS AND METHODS FOR CONTROLLED DRUG DELIVERY” (priority 2017, published 2020).
Values joined by “and” are separate entries in the source; they are usually repeats but may differ in a detail not shown here. Equal entries are not always repeated.

What was measured:
[1] = system: rats (Group 1 Sprague-Dawley, Group 4 Han Wister); test: Randall-Selitto test (Brewers Yeast-inflamed hind paw, analgesy meter); type: in vivo, rat; settings: Group 4; for % change from baseline, force on untreated (left) paw / Force (g) applied, Left paw, individual animals / Force (g) applied, Right Paw (inflamed), individual animals / Force (g) applied to the inflamed (right) paw, mean / Force (g) applied to the untreated (left) paw, mean / % change from baseline, force on inflamed (right) paw: 50 mg/kg sc; for Force (g) applied, Left paw, individual animals / Force (g) applied, Right Paw (inflamed), individual animals: 50 mg/kg; for Force (g) applied to the inflamed (right) paw, mean / Force (g) applied to the untreated (left) paw, mean: n=8
Excerpt: The Randall Selitto test is a tool to assess the response thresholds to mechanical pressure stimulation following induction of a hyperalgesic state by injection of an inflammatory agent and is considered a measure of mechanical hyperalgesia (Randall and Selitto, 1957). This involves application of an increasing force to the surface of the paw until withdrawal or vocalization occurs. The test can produce results similar to decreases on pressure pain thresholds observed in clinical conditions, such as fibromyalgia, myofascial pain, or osteoarthritis (Arendt-Nielsen et al., 2010; Bennett, 2007; Finan et al., 2013; Hsu et al., 2010). Centrally and peripherally acting effects can be detected using this model, for example, opioids increase the mechanical threshold to the normal and inflamed paw, whereas nonsteroidal anti-inflammatory drugs are only effective in the inflamed paw.
(§1) Eighteen male Sprague-Dawley rats were obtained from Charles River, Margate, United Kingdom, and were used for dosing. Animals weighed between 319 and 419 g on the day of dosing. Eight male Han Wister rats were obtained from Charles River, Margate, United Kingdom and used for Group 4. Animals weighed between 381 and 504 g on the day of dosing. The animals were assessed according to Table 1.
(§2) Animals were dosed subcutaneously via a motorized insulin pump.
The threshold of a pain response to increasing pressure was measured using an analgesy meter (Ugo Basile, Italy). The animal was gently held by a competent operator, and the hind paw of the animal was positioned over a convex surface (a cone-shaped pusher). A gradually increasing pressure (g) was applied to the upper surface of the paw. The force was continuously monitored by a pointer moving along a linear scale and was stopped by depression of a foot pedal when the animal struggled. A cut-off value of 300 g was adopted (based on available literature and experience).
Pre-dose Phase: The pressure pain threshold of each animal was tested on two occasions (once in the morning and once in the afternoon). This allowed animals to acclimate to the procedure.
Day of Dosing: On the day of dosing, each animal was administered a 0.1 mL 20% suspension of Brewers Yeast subcutaneously into the sub-plantar of the right hind paw at approximately 180 minutes prior to ketamine administration. Immediately prior to ketamine administration (Group 4), 15 and 30 minutes and 1, 2, and 4 hours post administration of ketamine, each animal was assessed for a response to increasing pressure on both hind paws (Group 1 used right hind paw, Group 4 used both hind paws), using the analgesy meter. Signs of anesthesia were recorded.

[2] = system: male Sprague-Dawley rats; test: Writhing test (acetic acid-induced abdominal spasm); type: in vivo, rat
Method: In the abdominal spasm (acetic acid-induced writhing) test, acetic acid is injected into the peritoneal cavity where it directly activates nociceptors and results in an abdominal writhing response. This writhing response is characterized by contraction of abdominal muscles followed by an extension of the hind limbs (Collier et al., 1968). This pain-behavior is considered reflexive and evidence of visceral pain associated with visceral chemoreceptors (Hammond, 1989). […] It is widely accepted that this model can be used as a screening method to determine the effects of drugs on inflammatory induced nociception (Vogel et al., 1997; Chiba et al., 2008). Although it can be used as a screening tool, it is unclear as to which clinical conditions the use of a chemical irritant represents (Gregory et al., 2013).
as §1, §2
At 1 hour post administration of ketamine, each animal was administered a 1 mL intraperitoneal injection of 1% acetic acid. Animals were immediately placed into individual observation chambers, and the number of abdominal spasms elicited over the subsequent 25-minute period was recorded.
Comparisons were made to background data.

[3] = system: rats; settings: 50 mg/kg; cited from earlier work

Question: Which results are given for CNC1(c2ccccc2Cl)CCCCC1=O (stereo not drawn) [ketamine]?
Answer: % change from baseline, force on untreated (left) paw ([1]; 0.25 h): −17.0%; Force (g) applied, Left paw, individual animals ([1]; 0.25 h): 60 g and 100 g and 180 g and 90 g and 80 g and 130 g and 110 g and 30 g; Force (g) applied, Right Paw (inflamed), individual animals ([1]; 0.25 h): 10 g and 30 g and 80 g and 50 g and 40 g and 60 g (2×) and 0 g; Force (g) applied to the inflamed (right) paw, mean ([1]; 0.25 h): 41.3 g; Force (g) applied to the untreated (left) paw, mean ([1]; 0.25 h): 97.5 g; % change from baseline, force on inflamed (right) paw ([1]; 0.5 h): 34.3%; % change from baseline, force on untreated (left) paw ([1]; 0.5 h): −9.6%; Force (g) applied, Left paw, individual animals ([1]; 0.5 h): 120 g (2×) and 130 g (2×) and 150 g and 90 g and 70 g and 40 g; Force (g) applied, Right Paw (inflamed), individual animals ([1]; 0.5 h): 40 g (2×) and 50 g and 80 g and 90 g and 70 g and 100 g and 0 g; Force (g) applied to the inflamed (right) paw, mean ([1]; 0.5 h): 58.8 g; Force (g) applied to the untreated (left) paw, mean ([1]; 0.5 h): 106.3 g; % change from baseline, force on inflamed (right) paw ([1]; 1 h): 65.7%; % change from baseline, force on untreated (left) paw ([1]; 1 h): −10.6%; Force (g) applied, Left paw, individual animals ([1]; 1 h): 80 g (3×) and 160 g and 100 g (2×) and 200 g and 40 g; Force (g) applied, Right Paw (inflamed), individual animals ([1]; 1 h): 80 g and 60 g and 140 g and 40 g and 70 g (2×) and 90 g and 30 g; Force (g) applied to the inflamed (right) paw, mean ([1]; 1 h): 72.5 g; Force (g) applied to the untreated (left) paw, mean ([1]; 1 h): 105.0 g; % change from baseline, force on inflamed (right) paw ([1]; 2 h): 165.7%; % change from baseline, force on untreated (left) paw ([1]; 2 h): −24.5%; Force (g) applied, Left paw, individual animals ([1]; 2 h): 100 g (2×) and 70 g and 130 g and 80 g (2×) and 90 g and 60 g; Force (g) applied, Right Paw (inflamed), individual animals ([1]; 2 h): 180 g and 80 g (2×) and 240 g and 70 g (2×) and 120 g and 90 g; Force (g) applied to the inflamed (right) paw, mean ([1]; 2 h): 116.3 g; Force (g) applied to the untreated (left) paw, mean ([1]; 2 h): 88.8 g; % change from baseline, force on inflamed (right) paw ([1]; 4 h): 38.45%; % change from baseline, force on untreated (left) paw ([1]; 4 h): 14.9%; Force (g) applied, Left paw, individual animals ([1]; 4 h): 130 g (2×) and 110 g (3×) and 220 g and 90 g and 180 g; Force (g) applied, Right Paw (inflamed), individual animals ([1]; 4 h): 60 g and 90 g and 170 g and 100 g (2×) and 80 g and 150 g and 70 g; Force (g) applied to the inflamed (right) paw, mean ([1]; 4 h): 102.5 g; Force (g) applied to the untreated (left) paw, mean ([1]; 4 h): 135.0 g; pressure required in the treated (right) paw at 15 minutes post-dose, in words ([1]; 15 minutes post-dose): slight decrease; pressure required to initiate a response in the treated (right) paw, in words ([1]; between 0.5 and 2 hours post-dose compared to pre-dose, time dependent): increase in pressure required to initiate a response; force applied to the untreated (left) paw, in words ([1]; throughout the data collection): remained comparable to pre-dose; Number of acetic acid-induced Abdominal Spasms, individual animals ([2]; 50 mg/kg sc, 1 hour after ketamine, animals R0201-R0206): 0 and 4 and 3 and 5 and 1 and 8; reduction of elicited spasms from baseline values ([2]; ketamine infusion versus baseline of 29/25 min): 86%; number of elicited spasms, average ([2]; ketamine infusion, baseline 29/25 min): 4 /25 min; relief of evoked pain 24 hours after administration [3]: no relief of evoked pain
